Earlier results on one molecule are cited in US20130202706A1 (DRUGGABILITY TECHNOLOGIES IP HOLDCO (JERSEY) LTD., priority 2010, published 2013).

The conditions of the data set: oral administration.

With `CC(C)c1c(C(=O)Nc2ccccc2)c(-c2ccccc2)c(-c2ccc(F)cc2)n1CC[C@@H](O)C[C@@H](O)CC(=O)O` [Atorvastatin], the “systemic availability of HMG-CoA reductase inhibitory activity” value is “approximately 30%”.
